Literature values, collected in US12133849B2, “Method for treating cancer using a BCL-2 inhibitor in conjunction with an alpha- emitting radioimmunotherapeutic” (Actinium Pharmaceuticals, Inc., priority 2017, dated 2024).

CC1(C)CCC(CN2CCN(c3ccc(C(=O)NS(=O)(=O)c4ccc(NCC5CCOCC5)c([N+](=O)[O-])c4)c(Oc4cnc5[nH]ccc5c4)c3)CC2)=C(c2ccc(Cl)cc2)C1 [venetoclax]
patients experiencing grade 3 and/or 4 neutropenia: 40%
